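All cell lines were grown in 96-well plates and treated with compound for 48 hours. Abbreviation: GI50, concentration required for 50% inhibition of growth.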 Calls of active or inactive are those of the source. Rule as the data show it: active = GI50 up to about 1.1 µM and inactive = higher. Residues, ends and D or L forms follow the SMILES beside them. *: point of attachment. Ethyl(2-NMe3+) = C[N+](C)(C)CC*; Boc = CC(C)(C)OC(=O)*
Tests used:
Assay in all cases: NCI tumour cell line growth inhibition, 48 h
[1] = tested on: A498
[2] = tested on: SN12C
[3] = tested on: SNB-75
[4] = tested on: SF-268
[5] = tested on: K562
[6] = tested on: MOLT-4
[7] = tested on: KM12
[8] = tested on: NCI/ADR-RES
[9] = tested on: SK-MEL-28
[10] = tested on: MDA-N
[11] = tested on: DU-145
[12] = tested on: OVCAR-5
[13] = tested on: A549
[14] = tested on: SK-OV-3
[15] = tested on: SF-295
[16] = tested on: TK-10
[17] = tested on: Hs-578T
[18] = tested on: IGROV-1
[19] = tested on: HOP-62
[20] = tested on: HCC 2998
[21] = tested on: UACC-62
[22] = tested on: 786-0
[23] = tested on: NCI-H23
[24] = tested on: LOX IMVI
[25] = tested on: M14
[26] = tested on: PC-3
[27] = tested on: HL-60
[28] = tested on: MDA-MB-231
[29] = tested on: SK-MEL-5
[30] = tested on: MDA-MB-435
[31] = tested on: OVCAR-8
[32] = tested on: NCI-H522
[33] = tested on: T47D
[34] = tested on: SNB-19
[35] = tested on: OVCAR-4
[36] = tested on: MCF7
[37] = tested on: SF-539
[38] = tested on: CAKI-1
[39] = tested on: HCT-116
[40] = tested on: HCT-15
[41] = tested on: NCI-H226
[42] = tested on: SW-620
[43] = tested on: RXF 393
[44] = tested on: U-251
[45] = tested on: RPMI-8226
[46] = tested on: HOP-92
[47] = tested on: ACHN
[48] = tested on: UO-31
[49] = tested on: Malme-3M
[50] = tested on: UACC-257
[51] = tested on: SK-MEL-2
[52] = tested on: HT-29
[53] = tested on: NCI-H460
[54] = tested on: COLO 205
[55] = tested on: BT-549
[56] = tested on: OVCAR-3
[57] = tested on: CCRF-CEM
[58] = tested on: SR
[59] = tested on: EKVX

Q: How did the GI50 [1] turn out when `CC(NC(=O)C(Cc1ccc(OCC[N+](C)(C)C)cc1)NC(=O)OC(C)(C)C)C(=O)NC(Cc1ccccc1)C(=O)NCC(N)=O` (stereo not drawn) (Boc-Y(Ethyl(2-NMe3+))AFG-NH2; configuration not given here) was run?
A: 13.4 µM (inactive)

Q: And the GI50 [2]?
A: 37.2 µM (inactive)

Q: What about the GI50 [3] of the same compound?
A: 13.6 µM (inactive)

Q: And the GI50 [4]?
A: 10.1 µM (inactive)

Q: And the GI50 [5]?
A: > 100 µM (inactive)

Q: What about the GI50 [6] of the same compound?
A: > 100 µM (inactive)

Q: And the GI50 [7]?
A: > 100 µM (inactive)

Q: And the GI50 [8]?
A: 36.9 µM (inactive)

Q: What about the GI50 [9] of the same compound?
A: > 100 µM (inactive)

Q: What about the GI50 [10] of the same compound?
A: > 100 µM (inactive)

Q: What about the GI50 [11] of the same compound?
A: 36.1 µM (inactive)

Q: What about the GI50 [12] of the same compound?
A: 25.1 µM (inactive)

Q: What about the GI50 [13] of the same compound?
A: 36.8 µM (inactive)

Q: What about the GI50 [14] of the same compound?
A: 10 µM (inactive)

Q: What about the GI50 [15] of the same compound?
A: 3.8 µM (inactive)

Q: What about the GI50 [16] of the same compound?
A: 11.8 µM (inactive)

Q: What about the GI50 [17] of the same compound?
A: 22.4 µM (inactive)

Q: And the GI50 [18]?
A: 20.1 µM (inactive)

Q: And the GI50 [19]?
A: 2.44 µM (inactive)

Q: And the GI50 [20]?
A: 16.5 µM (inactive)

Q: What about the GI50 [21] of the same compound?
A: 25.9 µM (inactive)

Q: What about the GI50 [22] of the same compound?
A: 10.4 µM (inactive)

Q: What about the GI50 [23] of the same compound?
A: 15.5 µM (inactive)

Q: And the GI50 [24]?
A: 30.4 µM (inactive)

Q: What about the GI50 [25] of the same compound?
A: 65.9 µM (inactive)

Q: What about the GI50 [26] of the same compound?
A: > 100 µM (inactive)

Q: What about the GI50 [27] of the same compound?
A: > 100 µM (inactive)

Q: What about the GI50 [28] of the same compound?
A: 2.75 µM (inactive)

Q: What about the GI50 [29] of the same compound?
A: > 100 µM (inactive)

Q: What about the GI50 [30] of the same compound?
A: > 100 µM (inactive)

Q: And the GI50 [31]?
A: 12 µM (inactive)

Q: And the GI50 [32]?
A: 36.9 µM (inactive)

Q: And the GI50 [33]?
A: 43.8 µM (inactive)

Q: And the GI50 [34]?
A: 13.2 µM (inactive)

Q: And the GI50 [35]?
A: 38.1 µM (inactive)

Q: What about the GI50 [36] of the same compound?
A: > 100 µM (inactive)

Q: And the GI50 [37]?
A: 11.4 µM (inactive)

Q: What about the GI50 [38] of the same compound?
A: 87.1 µM (inactive)

Q: What about the GI50 [39] of the same compound?
A: 34.9 µM (inactive)

Q: And the GI50 [40]?
A: > 100 µM

Q: And the GI50 [41]?
A: 22.7 µM (inactive)

Q: What about the GI50 [42] of the same compound?
A: > 100 µM (inactive)

Q: What about the GI50 [43] of the same compound?
A: 11.7 µM (inactive)

Q: What about the GI50 [44] of the same compound?
A: 3.24 µM (inactive)

Q: And the GI50 [45]?
A: > 100 µM (inactive)

Q: And the GI50 [46]?
A: 15.7 µM (inactive)

Q: And the GI50 [47]?
A: 22.1 µM (inactive)

Q: What about the GI50 [48] of the same compound?
A: 65.3 µM (inactive)

Q: What about the GI50 [49] of the same compound?
A: 20.9 µM (inactive)

Q: And the GI50 [50]?
A: 45.2 µM (inactive)

Q: What about the GI50 [51] of the same compound?
A: 11.9 µM (inactive)

Q: And the GI50 [52]?
A: > 100 µM (inactive)

Q: What about the GI50 [53] of the same compound?
A: 70.5 µM (inactive)

Q: What about the GI50 [54] of the same compound?
A: 75.7 µM (inactive)

Q: What about the GI50 [55] of the same compound?
A: 20.2 µM (inactive)

Q: And the GI50 [56]?
A: 18.2 µM (inactive)

Q: How did the GI50 [1] turn out when `C=C1C(=O)OC2CC(=C)C3CC=C(C)C3CC12` (stereo not drawn) was run?
A: 53.6 µM (inactive)

Q: And the GI50 [2]?
A: 16.2 µM (inactive)

Q: And the GI50 [4]?
A: 34 µM (inactive)

Q: And the GI50 [5]?
A: 11 µM (inactive)

Q: What about the GI50 [57] of the same compound?
A: 8.24 µM (inactive)

Q: What about the GI50 [6] of the same compound?
A: 17.3 µM (inactive)

Q: And the GI50 [7]?
A: 41.1 µM (inactive)

Q: And the GI50 [58]?
A: 18.1 µM (inactive)

Q: And the GI50 [8]?
A: 35.5 µM (inactive)

Q: And the GI50 [9]?
A: 23.1 µM (inactive)

Q: And the GI50 [10]?
A: 16.4 µM (inactive)

Q: What about the GI50 [11] of the same compound?
A: > 10 µM (inactive)

Q: What about the GI50 [12] of the same compound?
A: 46.7 µM (inactive)

Q: What about the GI50 [13] of the same compound?
A: 35.5 µM (inactive)

Q: And the GI50 [14]?
A: 30.7 µM (inactive)

Q: And the GI50 [15]?
A: 32.4 µM (inactive)

Q: What about the GI50 [16] of the same compound?
A: 18 µM (inactive)

Q: What about the GI50 [17] of the same compound?
A: 44.7 µM (inactive)

Q: And the GI50 [18]?
A: 18 µM (inactive)

Q: What about the GI50 [19] of the same compound?
A: 47 µM (inactive)

Q: And the GI50 [20]?
A: 21.1 µM (inactive)

Q: And the GI50 [21]?
A: 10.4 µM (inactive)

Q: What about the GI50 [22] of the same compound?
A: 15.7 µM (inactive)

Q: What about the GI50 [24] of the same compound?
A: 11.1 µM (inactive)

Q: What about the GI50 [25] of the same compound?
A: 18 µM (inactive)

Q: What about the GI50 [26] of the same compound?
A: 14.9 µM (inactive)

Q: What about the GI50 [27] of the same compound?
A: 18.3 µM (inactive)

Q: And the GI50 [28]?
A: 21.5 µM (inactive)

Q: What about the GI50 [29] of the same compound?
A: 27 µM (inactive)

Q: What about the GI50 [30] of the same compound?
A: 15.7 µM (inactive)

Q: And the GI50 [31]?
A: 35.9 µM (inactive)

Q: And the GI50 [32]?
A: 14.4 µM (inactive)

Q: And the GI50 [33]?
A: 14.3 µM (inactive)

Q: And the GI50 [34]?
A: 22.9 µM (inactive)

Q: What about the GI50 [35] of the same compound?
A: 27.3 µM (inactive)

Q: And the GI50 [36]?
A: 20.1 µM (inactive)

Q: What about the GI50 [37] of the same compound?
A: 38.1 µM (inactive)

Q: And the GI50 [38]?
A: 15 µM (inactive)

Q: And the GI50 [39]?
A: 18.4 µM (inactive)

Q: And the GI50 [40]?
A: 17.5 µM

Q: And the GI50 [41]?
A: 15.6 µM (inactive)

Q: And the GI50 [42]?
A: 15.7 µM (inactive)

Q: And the GI50 [44]?
A: 15.3 µM (inactive)

Q: And the GI50 [45]?
A: 14.2 µM (inactive)

Q: And the GI50 [46]?
A: 10.5 µM (inactive)

Q: What about the GI50 [47] of the same compound?
A: 18.7 µM (inactive)

Q: What about the GI50 [48] of the same compound?
A: 15.9 µM (inactive)

Q: And the GI50 [49]?
A: > 10 µM (inactive)

Q: And the GI50 [50]?
A: 14.4 µM (inactive)

Q: What about the GI50 [51] of the same compound?
A: 11.7 µM (inactive)

Q: What about the GI50 [52] of the same compound?
A: 13 µM (inactive)

Q: And the GI50 [59]?
A: 64.6 µM (inactive)

Q: And the GI50 [53]?
A: 28.8 µM (inactive)

Q: And the GI50 [54]?
A: 17.9 µM (inactive)

Q: And the GI50 [55]?
A: 14.7 µM (inactive)

Q: What about the GI50 [56] of the same compound?
A: 27.5 µM (inactive)

Q: Which results are given for `CN1C2=Nc3n(C)c4ccccc4[n+]3CN2c2ccccc21`?
A: GI50 [2]: 25.8 µM (inactive); GI50 [4]: 13.1 µM (inactive); GI50 [5]: 29.5 µM (inactive); GI50 [57]: 47.4 µM (inactive); GI50 [6]: 16.8 µM (inactive); GI50 [7]: 8.73 µM (inactive); GI50 [58]: 28.3 µM (inactive); GI50 [8]: > 100 µM (inactive); GI50 [10]: 17.8 µM (inactive); GI50 [11]: 43.3 µM (inactive); GI50 [12]: 84.1 µM (inactive); GI50 [13]: 37.6 µM (inactive); GI50 [14]: > 100 µM (inactive); GI50 [15]: 95.7 µM (inactive); GI50 [16]: > 100 µM (inactive); GI50 [17]: 27.5 µM (inactive); GI50 [18]: 29.9 µM (inactive); GI50 [19]: > 100 µM (inactive); GI50 [21]: 17 µM (inactive); GI50 [22]: 36.2 µM (inactive); GI50 [23]: 26.5 µM (inactive); GI50 [25]: 43.7 µM (inactive); GI50 [26]: 47.3 µM (inactive); GI50 [27]: > 100 µM (inactive); GI50 [28]: 34.6 µM (inactive); GI50 [29]: 12.6 µM (inactive); GI50 [30]: 26.5 µM (inactive); GI50 [31]: 57.1 µM (inactive); GI50 [32]: 16.8 µM (inactive); GI50 [33]: 16.3 µM (inactive); GI50 [34]: 35.3 µM (inactive); GI50 [36]: 10.5 µM (inactive); GI50 [37]: 69.5 µM (inactive); GI50 [38]: > 100 µM (inactive); GI50 [39]: 43.2 µM (inactive); GI50 [40]: > 100 µM; GI50 [42]: 24.3 µM (inactive); GI50 [44]: 25.2 µM (inactive); GI50 [45]: 41.1 µM (inactive); GI50 [46]: 22.6 µM (inactive); GI50 [47]: > 100 µM (inactive); GI50 [48]: > 100 µM (inactive); GI50 [49]: 4.21 µM (inactive); GI50 [50]: 32.1 µM (inactive); GI50 [51]: 18.4 µM (inactive); GI50 [52]: 38 µM (inactive); GI50 [59]: 36.1 µM (inactive); GI50 [53]: 24.2 µM (inactive); GI50 [54]: 12.7 µM (inactive); GI50 [55]: > 100 µM (inactive); GI50 [56]: 10.8 µM (inactive)

Reference: ChEMBL document CHEMBL1201862, “PubChem BioAssay data set” (2004)
